According to PMC5122590, “Identification of a Dolabellane Type Diterpene Synthase and other Root-Expressed Diterpene Synthases in Arabidopsis” (Frontiers in Plant Science, 2016):

Key:
TPS6c = biological target: T1, TPS6c (Arabidopsis thaliana, UniProt Q84UU9); test: E. coli coexpression with GGPP synthase, GC-MS; assay type: cell-based; conditions: product (3E,7E)-dolabella-3,7-dien-18-ol and an unknown diterpene
T1 construct: gene TPS06; N-terminal 53 aa removed; pET28a; expressed in E. coli with GGPP synthase
T1 sequence (Q84UU9 54-611): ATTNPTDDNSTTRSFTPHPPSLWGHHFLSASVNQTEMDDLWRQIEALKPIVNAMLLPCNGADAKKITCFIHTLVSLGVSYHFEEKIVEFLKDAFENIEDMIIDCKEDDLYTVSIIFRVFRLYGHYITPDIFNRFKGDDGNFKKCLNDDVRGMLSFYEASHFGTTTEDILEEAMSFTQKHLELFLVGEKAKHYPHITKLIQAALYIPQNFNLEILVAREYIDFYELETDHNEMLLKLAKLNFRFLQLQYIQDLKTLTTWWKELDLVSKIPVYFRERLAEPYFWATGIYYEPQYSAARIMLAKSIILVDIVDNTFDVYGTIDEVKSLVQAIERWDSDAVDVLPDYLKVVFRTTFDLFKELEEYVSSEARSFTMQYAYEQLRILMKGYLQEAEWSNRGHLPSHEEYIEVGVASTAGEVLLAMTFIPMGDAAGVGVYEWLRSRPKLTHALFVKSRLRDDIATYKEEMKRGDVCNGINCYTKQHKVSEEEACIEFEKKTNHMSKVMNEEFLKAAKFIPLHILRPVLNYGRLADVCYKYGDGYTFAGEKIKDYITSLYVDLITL

TPS20c = biological target: T2, TPS20c (Arabidopsis thaliana, UniProt Q9FI27); test: radiochemical terpene synthase assay; assay type: biochemical; conditions: labelled compound ([1-3H]-GGPP); six concentrations, triplicate
T2 construct: gene TPS20; first 53 aa (plastid transit peptide) removed; N-terminal His-tag (pET28a NdeI/XhoI); E. coli; partially purified
T2 sequence (Q9FI27 54-575): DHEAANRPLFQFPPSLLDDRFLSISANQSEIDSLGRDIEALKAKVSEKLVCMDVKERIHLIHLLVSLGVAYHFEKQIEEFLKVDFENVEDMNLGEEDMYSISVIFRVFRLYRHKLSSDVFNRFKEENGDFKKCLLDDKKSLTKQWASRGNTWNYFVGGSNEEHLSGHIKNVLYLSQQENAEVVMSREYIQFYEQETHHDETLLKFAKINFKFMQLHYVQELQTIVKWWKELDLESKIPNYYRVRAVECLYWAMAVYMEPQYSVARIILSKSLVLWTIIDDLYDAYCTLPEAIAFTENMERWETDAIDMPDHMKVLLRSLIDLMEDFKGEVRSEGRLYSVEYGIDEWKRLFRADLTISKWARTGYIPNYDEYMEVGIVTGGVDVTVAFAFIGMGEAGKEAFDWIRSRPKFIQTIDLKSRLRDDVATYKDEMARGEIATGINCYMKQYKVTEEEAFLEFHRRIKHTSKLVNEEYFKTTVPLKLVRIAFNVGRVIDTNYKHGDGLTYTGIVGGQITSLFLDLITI
Description: radiochemical terpene synthase assay on TPS20c

TPS9 [1] = biological target: T3, TPS9 (Arabidopsis thaliana, UniProt Q8L7G4); test: E. coli coexpression with GGPP synthase, GC-MS; assay type: cell-based; conditions: unidentified diterpene olefins formed
T3 construct: gene TPS09; pET Duet; no truncation stated; RIKEN full-length cDNA clone; expressed in E. coli with prenyl diphosphate synthase
T3 sequence (Q8L7G4 1-607): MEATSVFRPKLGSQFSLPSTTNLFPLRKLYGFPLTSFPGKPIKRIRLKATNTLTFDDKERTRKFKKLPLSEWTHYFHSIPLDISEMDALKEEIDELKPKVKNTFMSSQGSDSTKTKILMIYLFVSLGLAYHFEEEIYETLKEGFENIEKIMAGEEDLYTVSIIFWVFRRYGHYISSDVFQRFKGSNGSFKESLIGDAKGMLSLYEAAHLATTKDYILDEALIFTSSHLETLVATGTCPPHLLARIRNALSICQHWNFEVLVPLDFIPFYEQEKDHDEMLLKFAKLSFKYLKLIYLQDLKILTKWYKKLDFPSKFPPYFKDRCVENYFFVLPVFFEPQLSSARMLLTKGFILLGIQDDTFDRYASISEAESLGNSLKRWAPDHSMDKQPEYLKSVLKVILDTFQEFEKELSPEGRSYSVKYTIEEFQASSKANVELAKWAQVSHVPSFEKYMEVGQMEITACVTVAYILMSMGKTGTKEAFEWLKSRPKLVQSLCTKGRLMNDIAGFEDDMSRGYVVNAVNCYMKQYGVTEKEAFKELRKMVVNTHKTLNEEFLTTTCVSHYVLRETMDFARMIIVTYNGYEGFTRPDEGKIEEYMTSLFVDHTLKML

TPS30 = biological target: T4, TPS30 (Arabidopsis thaliana, UniProt Q9LH31); test: E. coli coexpression with GGPP synthase, GC-MS; assay type: cell-based; conditions: two unknown diterpenes formed
T4 construct: N-terminal 48 aa removed; pET28a; expressed in E. coli with prenyl diphosphate synthase
T4 sequence (Q9LH31 49-604): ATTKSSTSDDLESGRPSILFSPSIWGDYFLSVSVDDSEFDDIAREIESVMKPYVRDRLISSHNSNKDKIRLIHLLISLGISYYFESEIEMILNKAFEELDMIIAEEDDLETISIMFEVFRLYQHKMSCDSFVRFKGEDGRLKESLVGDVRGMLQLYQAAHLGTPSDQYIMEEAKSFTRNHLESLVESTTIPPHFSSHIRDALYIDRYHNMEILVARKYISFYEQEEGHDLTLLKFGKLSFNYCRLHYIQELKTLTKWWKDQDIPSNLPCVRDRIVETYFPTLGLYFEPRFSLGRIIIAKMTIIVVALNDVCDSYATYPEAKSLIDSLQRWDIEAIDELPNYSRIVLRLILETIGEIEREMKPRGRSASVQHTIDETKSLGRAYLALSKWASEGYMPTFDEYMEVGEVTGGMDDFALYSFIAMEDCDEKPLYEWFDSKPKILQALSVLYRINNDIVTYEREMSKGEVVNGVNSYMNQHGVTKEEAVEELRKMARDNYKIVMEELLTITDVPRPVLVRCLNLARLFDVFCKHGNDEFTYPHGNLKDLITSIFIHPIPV

TPS9 [2] = biological target: T3, TPS9; test: E. coli coexpression with (E,E)-FPP synthase, GC-MS; assay type: cell-based; conditions: trace nerolidol and (E)-beta-farnesene formed
TPS22 = biological target: T5, TPS22 (Arabidopsis thaliana, UniProt Q9LQ27); test: in vitro assay, SPME-GC-MS; assay type: biochemical; conditions: main product (E)-beta-farnesene
T5 construct: N-terminal 41 aa (transit peptide) removed; TOPO-pET102; E. coli; partially purified
T5 sequence (Q9LQ27 42-603): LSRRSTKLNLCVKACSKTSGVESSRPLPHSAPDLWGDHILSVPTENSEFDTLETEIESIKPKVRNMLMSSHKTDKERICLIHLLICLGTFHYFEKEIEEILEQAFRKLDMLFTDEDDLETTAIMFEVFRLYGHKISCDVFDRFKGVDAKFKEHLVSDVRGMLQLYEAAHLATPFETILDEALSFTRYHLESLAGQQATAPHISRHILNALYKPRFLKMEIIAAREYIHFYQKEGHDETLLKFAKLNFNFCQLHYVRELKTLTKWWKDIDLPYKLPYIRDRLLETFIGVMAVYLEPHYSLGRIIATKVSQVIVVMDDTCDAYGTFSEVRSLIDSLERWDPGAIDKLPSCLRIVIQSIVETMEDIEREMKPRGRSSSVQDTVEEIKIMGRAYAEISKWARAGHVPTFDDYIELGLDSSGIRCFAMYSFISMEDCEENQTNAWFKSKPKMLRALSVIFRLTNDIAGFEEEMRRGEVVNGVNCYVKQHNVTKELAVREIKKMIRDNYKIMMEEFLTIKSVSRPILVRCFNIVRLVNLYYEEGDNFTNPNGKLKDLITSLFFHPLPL

TPS26 = biological target: T6, TPS26 (Arabidopsis thaliana, UniProt Q9C8E3); test: E. coli coexpression with (E,E)-FPP synthase, GC-MS; assay type: cell-based; conditions: trace alpha-humulene and (E)-beta-farnesene formed
T6 construct: N-terminal 38 aa removed; pET28a; RIKEN cDNA clone; expressed in E. coli with prenyl diphosphate synthase
T6 sequence (Q9C8E3 39-598): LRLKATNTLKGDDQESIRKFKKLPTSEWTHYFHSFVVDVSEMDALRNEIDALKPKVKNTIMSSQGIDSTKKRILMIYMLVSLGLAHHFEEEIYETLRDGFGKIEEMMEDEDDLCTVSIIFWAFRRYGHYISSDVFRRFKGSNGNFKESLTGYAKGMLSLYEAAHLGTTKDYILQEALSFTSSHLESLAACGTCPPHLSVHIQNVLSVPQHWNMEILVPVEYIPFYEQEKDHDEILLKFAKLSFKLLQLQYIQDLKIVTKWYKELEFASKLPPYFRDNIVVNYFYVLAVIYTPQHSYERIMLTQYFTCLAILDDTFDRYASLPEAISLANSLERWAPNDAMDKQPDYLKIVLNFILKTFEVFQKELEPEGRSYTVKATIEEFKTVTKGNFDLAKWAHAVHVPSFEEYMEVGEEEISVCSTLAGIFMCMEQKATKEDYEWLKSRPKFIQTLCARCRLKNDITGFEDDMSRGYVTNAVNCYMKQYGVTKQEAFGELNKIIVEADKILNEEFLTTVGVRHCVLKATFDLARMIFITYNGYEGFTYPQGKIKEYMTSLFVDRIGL

TPS25 = biological target: T7, TPS25 (Arabidopsis thaliana, UniProt Q9LIA1); test: in vitro assay, SPME-GC-MS; assay type: biochemical; conditions: main product (E)-beta-farnesene
T7 construct: N-terminal 25 aa (transit peptide) removed; TOPO-pET102; E. coli; partially purified
T7 sequence (Q9LIA1 26-603): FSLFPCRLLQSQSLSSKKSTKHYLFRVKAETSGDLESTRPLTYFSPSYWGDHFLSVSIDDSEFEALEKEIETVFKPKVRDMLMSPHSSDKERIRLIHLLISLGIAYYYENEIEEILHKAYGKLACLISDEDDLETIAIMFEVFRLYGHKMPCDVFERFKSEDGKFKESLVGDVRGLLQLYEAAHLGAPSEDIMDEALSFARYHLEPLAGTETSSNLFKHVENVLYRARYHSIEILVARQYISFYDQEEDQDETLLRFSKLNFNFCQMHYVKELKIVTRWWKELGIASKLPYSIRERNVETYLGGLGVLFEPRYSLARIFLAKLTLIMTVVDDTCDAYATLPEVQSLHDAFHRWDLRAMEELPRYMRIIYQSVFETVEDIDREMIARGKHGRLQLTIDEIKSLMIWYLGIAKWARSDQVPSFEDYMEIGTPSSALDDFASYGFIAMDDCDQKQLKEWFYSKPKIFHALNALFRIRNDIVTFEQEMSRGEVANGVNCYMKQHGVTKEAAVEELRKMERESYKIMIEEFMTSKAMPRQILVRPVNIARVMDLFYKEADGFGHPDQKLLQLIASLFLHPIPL

Compound	E. coli coexpression with GGPP synthase, GC-MS (TPS6c)	Km (TPS20c)	E. coli coexpression with GGPP synthase, GC-MS (TPS9 [1])	E. coli coexpression with GGPP synthase, GC-MS (TPS30)	E. coli coexpression with (E,E)-FPP synthase, GC-MS (TPS9 [2])	in vitro assay, SPME-GC-MS (TPS22)	E. coli coexpression with (E,E)-FPP synthase, GC-MS (TPS26)	in vitro assay, SPME-GC-MS (TPS25)
CC(C)=CCC/C(C)=C/CC/C(C)=C/CC/C(C)=C/COP(=O)(O)OP(=O)(O)O [GGPP]	TPS6c reacts with GGPP to produce dolabelladienol and an unknown diterpene	6.29 ± 0.24 µM	TPS9 converted GGPP to one predominant diterpene olefin and eight minor diterpene products	protein encoded by gene TPS30 reacted with GGPP to form two unknown diterpenes	–	–	–	–
CC(C)=CCC/C(C)=C/CC/C(C)=C/COP(=O)(O)OP(=O)(O)O [(E,E)-FPP]	–	–	–	–	When co-expressed with (E,E)-FPP synthase, TPS9 produced trace amounts of nerolidol and (E)-β-farnesene	both proteins converted (E,E)-FPP into sesquiterpenes in vitro with (E)-β-farnesene as the main compound	trace amounts of α-humulene and (E)-β-farnesene being produced by TPS26	both proteins converted (E,E)-FPP into sesquiterpenes in vitro with (E)-β-farnesene as the main compound
